Experimental data reported in patent US12404265B2, “Substituted pyridine derivatives as SARM1 inhibitors” (Nura Bio, Inc., priority 2020, dated 2025).

molecular target: T1, human SARM1(50-724) (Homo sapiens, UniProt Q6SZW1); experiment: SARM1 NADase biochemical assay (HPLC of NAD and NAM); conditions: 40 nM human SARM1(50-724), 0.3 mM NMN, 20 μM NAD, 60 minutes room temperature; dose-response from 100 μM, 1:3 dilution
T1 construct: 40 nM human SARM1(50-724)
T1 sequence (Q6SZW1 50-724): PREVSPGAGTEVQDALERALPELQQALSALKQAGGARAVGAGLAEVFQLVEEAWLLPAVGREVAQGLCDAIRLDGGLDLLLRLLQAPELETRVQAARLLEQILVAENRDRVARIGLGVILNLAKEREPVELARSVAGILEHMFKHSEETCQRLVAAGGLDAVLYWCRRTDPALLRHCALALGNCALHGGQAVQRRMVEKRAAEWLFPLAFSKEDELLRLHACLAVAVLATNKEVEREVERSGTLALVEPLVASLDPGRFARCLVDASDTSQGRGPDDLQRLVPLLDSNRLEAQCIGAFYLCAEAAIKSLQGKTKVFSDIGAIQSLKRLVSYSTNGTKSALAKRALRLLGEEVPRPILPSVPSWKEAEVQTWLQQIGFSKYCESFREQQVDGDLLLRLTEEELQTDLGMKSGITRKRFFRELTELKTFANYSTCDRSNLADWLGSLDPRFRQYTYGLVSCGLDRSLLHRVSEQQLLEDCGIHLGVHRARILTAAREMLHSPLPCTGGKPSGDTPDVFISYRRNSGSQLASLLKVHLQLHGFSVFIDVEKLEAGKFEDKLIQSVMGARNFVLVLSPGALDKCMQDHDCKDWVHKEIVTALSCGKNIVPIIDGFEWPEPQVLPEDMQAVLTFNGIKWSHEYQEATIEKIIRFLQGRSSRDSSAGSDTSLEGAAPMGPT
How it was run: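 Human SARM1(50-724) at 40 nM with 0.3 mM NMN, 20 μM NAD, 1 mM TCEP in 25 mM HEPES pH 7.4, 10 mM KCl, 10 mM MgCl2, 1% DMSO; 60 min at room temperature, formic acid quench. NAD and NAM quantified by reverse-phase HPLC peak area; single point 50 μM or 1:3 series from 100 μM.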

| SMILES | IC50 [nM] |
| --- | --- |
| Cc1c(-c2ccncc2)n[nH]c1NC(=O)CS(=O)(=O)c1ccc(Cl)cc1 [Example 121, 2-((4-chlorophenyl)sulfonyl)-N-(4-methyl-3-(pyridin-4-yl)-1H-pyrazol-5-yl)acetamide] | < 1000 |
| COc1c(-c2ccncc2)n[nH]c1NC(=O)CCc1ccc(Cl)cc1 [Example 122, 3-(4-Chlorophenyl)-N-(4-methoxy-3-(pyridin-4-yl)-1H-pyrazol-5-yl)propanamide] | < 1000 |
| O=C(CCc1ccc(Cl)cc1)Nc1[nH]nc(-c2ccncc2)c1C1CC1 [Example 123, 3-(4-Chlorophenyl)-N-(4-cyclopropyl-3-(pyridin-4-yl)-1H-pyrazol-5-yl)propanamide] | < 1000 |
| Cc1c(-c2ccncc2)n[nH]c1NC(=S)CCc1ccc(Cl)cc1 [Example 124, 3-(4-Chlorophenyl)-N-[4-methyl-3-(pyridin-4-yl)-1H-pyrazol-5-yl]propanethioamide] | < 1000 |
| O=C(CCc1ccc(Cl)cc1)Nc1[nH]nc(-c2ccncc2)c1C(F)(F)F [Example 125, 3-(4-Chlorophenyl)-N-[3-(pyridin-4-yl)-4-(trifluoromethyl)-1H-pyrazol-5-yl]propanamide] | < 1000 |
| O=C(CCc1cccc(Cl)c1)Nc1cnn(-c2ccncc2)c1Cl [Example 126, N-[5-Chloro-1-(pyridin-4-yl)-1H-pyrazol-4-yl]-3-(3-chlorophenyl)propanamide] | 1000 to 10000 |
| O=C(CCc1cc(F)c(Cl)c(F)c1)Nc1cnn(-c2ccncc2)c1Br [Example 127, N-[5-Bromo-1-(pyridin-4-yl)-1H-pyrazol-4-yl]-3-(4-chloro-3,5-difluorophenyl)propanamide] | < 1000 |
| N#Cc1c(F)cc(CCC(=O)Nc2[nH]nc(-c3ccncc3)c2Cl)cc1F [Example 128] | < 1000 |
| N#Cc1ccc(CCC(=O)Nc2[nH]nc(-c3ccncc3)c2Cl)cc1F [Example 129] | < 1000 |
| Cc1c(-c2ccncc2)n[nH]c1NC(=O)OCc1ccc(Cl)cc1 [Example 130, 4-Chlorobenzyl (4-methyl-3-(pyridin-4-yl)-1H-pyrazol-5-yl)carbamate] | < 1000 |
| Cc1c(-c2ccncc2)n[nH]c1NC(=O)N(C)Cc1ccc(Cl)cc1 [Example 131, 1-(4-Chlorobenzyl)-1-methyl-3-(4-methyl-3-(pyridin-4-yl)-1H-pyrazol-5-yl)urea] | 1000 to 10000 |
| Cn1c(-c2ccncc2)cnc1NC(=O)CCc1ccc(Cl)cc1 [Example 132] | 1000 to 10000 |
| CN(C(=O)CCc1ccc(Cl)cc1)c1cnn(-c2ccncc2)c1 [Example 134, 3-(4-Chlorophenyl)-N-methyl-N-(1-(pyridin-4-yl)-1H-pyrazol-4-yl)propanamide] | 1000 to 10000 |
| Cc1c(-c2ccncc2)n[nH]c1NC(=O)C1CC1c1ccc(Cl)cc1 (centres unmarked) [Example 135, 2-(4-Chlorophenyl)-N-(4-methyl-3-(pyridin-4-yl)-1H-pyrazol-5-yl)cyclopropane-1-carboxamide] | 1000 to 10000 |
| Cc1c(NC(=O)OCc2ccc(Cl)cc2)cnn1-c1ccncc1 [Example 136, 4-Chlorobenzyl (5-methyl-1-(pyridin-4-yl)-1H-pyrazol-4-yl)carbamate] | < 1000 |
| Cc1c(NC(=S)CCc2ccc(Cl)cc2)cnn1-c1ccncc1 [Example 137, 3-(4-Chlorophenyl)-N-(5-methyl-1-(pyridin-4-yl)-1H-pyrazol-4-yl)propanethioamide] | 1000 to 10000 |
| Cc1c(-c2ccncc2)n[nH]c1N1CCC(c2ccc(Cl)cc2)CC1=O (centres unmarked) [Example 138, 4-(4-Chlorophenyl)-1-(4-methyl-3-(pyridin-4-yl)-1H-pyrazol-5-yl)piperidin-2-one] | < 1000 |
| Cc1c(-c2ccncc2)n[nH]c1N(C)C(=O)CCc1ccc(Cl)cc1 [Example 139] | < 1000 |
| C#Cc1ccc(CCC(=O)Nc2[nH]nc(-c3ccncc3)c2C)cc1 [Example 140] | < 1000 |
| Cc1c(-c2ccncc2)n[nH]c1NC(=O)NCc1ccc(C#N)cc1 [Example 141, 1-[(4-Cyanophenyl)methyl]-3-[4-methyl-3-(pyridin-4-yl)-1H-pyrazol-5-yl]urea] | < 1000 |
| Cc1c(-c2ccncc2)n[nH]c1NC(=O)NCc1ccc(F)cc1 [Example 142, 1-[(4-Fluorophenyl)methyl]-3-[4-methyl-3-(pyridin-4-yl)-1H-pyrazol-5-yl]urea] | < 1000 |

| SMILES | IC50 [nM] |
| --- | --- |
| Cc1c(-c2ccncc2)n[nH]c1NC(=O)NCc1ccc(Cl)nc1 [Example 143, 1-[(6-Chloropyridin-3-yl)methyl]-3-[4-methyl-3-(pyridin-4-yl)-1H-pyrazol-5-yl]urea] | < 1000 |
| Cc1c(NC(=O)NCc2ccc(Cl)cc2)cnn1-c1ccncc1 [Example 144, 1-(4-Chlorobenzyl)-3-(5-methyl-1-(pyridin-4-yl)-1H-pyrazol-4-yl)urea] | < 1000 |
| O=C(NCc1cc(F)c(F)c(F)c1)Nc1[nH]nc(-c2ccncc2)c1Cl [Example 145, 1-(4-Chloro-3-(pyridin-4-yl)-1H-pyrazol-5-yl)-3-(3,4,5-trifluorobenzyl)urea] | < 1000 |
| N#Cc1c(F)cc(CC2CCN(c3cc(-c4ccncc4)n[nH]3)C2=O)cc1F (centres unmarked) [Example 146, 2,6-Difluoro-4-((2-oxo-1-(3-(pyridin-4-yl)-1H-pyrazol-5-yl)pyrrolidin-3-yl)methyl)benzonitrile] | < 1000 |
| O=C(CCc1ccc(Cl)cc1)Nc1[nH]nc(-c2ccncc2)c1Br [Example 147, N-(4-Bromo-3-(pyridin-4-yl)-1H-pyrazol-5-yl)-3(4-chlorophenyl)propanamide] | < 1000 |
| Cc1c(-c2ccncc2)n[nH]c1NC(=O)N[C@H](C)c1ccc(Cl)cc1 [Example 148, (R)-1-(1-(4-Chlorophenyl)ethyl)-3-(4-methyl-3-(pyridin-4-yl)-1H-pyrazol-5-yl)urea] | 1000 to 10000 |
| Cc1c(NC(=O)OCc2ccc(Cl)s2)cnn1-c1ccncc1 [Example 149, (5-Chlorothiophen-2-yl)methyl (5-methyl-1-(pyridin-4-yl)-1H-pyrazol-4-yl)carbamate] | 1000 to 10000 |
| N[C@H](Cc1ccc(Cl)cc1)C(=O)Nc1cc(-c2ccncc2)n[nH]1 [Example 151, (R)-2-Amino-3-(4-chlorophenyl)-N-(3-(pyridin-4-yl)-1H-pyrazol-5-yl)propanamide] | < 1000 |
| Cc1c(N2C(=O)[C@H](Cc3ccc(Cl)cc3)NC2(C)C)cnn1-c1ccncc1 [Example 152, (S)-5-(4-Chlorobenzyl)-2,2-dimethyl-3-(5-methyl-1-(pyridin-4-yl)-1H-pyrazol-4-yl)imidazolidin-4-one] | 1000 to 10000 |
| N[C@@H](Cc1ccc(Cl)cc1)C(=O)Nc1cc(-c2ccncc2)n[nH]1 [Example 153, (S)-2-Amino-3-(4-chlorophenyl)-N-(3-(pyridin-4-yl)-1H-pyrazol-5-yl)propanamide] | < 1000 |
| O=C1N(Cc2ccc(Cl)cc2)CCN1c1cnn(-c2ccncc2)c1 [Example 158, 1-(4-Chlorobenzyl)-3-(1-(pyridin-4-yl)-1H-pyrazol-4-yl)imidazolidin-2-one] | 1000 to 10000 |
| O=C1N(Cc2ccc(Cl)cc2)CCCN1c1cnn(-c2ccncc2)c1 [Example 159, 1-(4-Chlorobenzyl)-3-(1-(pyridin-4-yl)-1H-pyrazol-4-yl)tetrahydropyrimidin-2(1H)-one] | 1000 to 10000 |
| S=C(NCc1ccc(Cl)cc1)Nc1cnn(-c2ccncc2)c1 [Example 160, 1-(4-Chlorobenzyl)-3-(1-(pyridin-4-yl)-1H-pyrazol-4-yl)thiourea] | 1000 to 10000 |
| Cc1c(-c2ccncc2)n[nH]c1NC(=O)NCc1ccc(Cl)cc1 [Example 161, 1-(4-Chlorobenzyl)-3-(4-methyl-3-(pyridin-4-yl)-1H-pyrazol-5-yl)urea] | < 1000 |
| O=C(CCc1ccc(Cl)cc1)Nc1nnc(-c2ccncc2)[nH]1 [Example 162, 3-(4-Chlorophenyl)-N-(5-(pyridin-4-yl)-4H-1,2,4-triazol-3-yl)propanamide] | < 1000 |
| O=C(NCc1cc(F)c(Cl)c(F)c1)Nc1cc(-c2ccncc2)n[nH]1 [Example 163, 1-(4-Chloro-3,5-difluorobenzyl)-3-(3-(pyridin-4-yl)-1H-pyrazol-5-yl)urea] | < 1000 |
| O=C(NCc1cc(F)c(F)c(F)c1)Nc1cc(-c2ccncc2)n[nH]1 [Example 164, 1-(3-(Pyridin-4-yl)-1H-pyrazol-5-yl)-3-(3,4,5-trifluorobenzyl)urea] | < 1000 |
| O=C(NCc1ccc(Cl)cc1)Nc1cc(-c2ccncc2)n[nH]1 [Example 165, 1-(4-Chlorobenzyl)-3-(3-(pyridin-4-yl)-1H-pyrazol-5-yl)urea] | < 1000 |
| O=C(CCc1cc(F)c(F)c(F)c1)Nc1[nH]nc(-c2ccncc2)c1Cl [Example 167, N-(4-Chloro-3-(pyridin-4-yl)-1H-pyrazol-5-yl)-3-(3,4,5-trifluorophenyl)propanamide] | < 1000 |
| O=C(NCc1ccc(Cl)cc1)Nc1[nH]nc(-c2ccncc2)c1Cl [Example 168, 1-(4-Chloro-3-(pyridin-4-yl)-1H-pyrazol-5-yl)-3-(4-chlorobenzyl)urea] | < 1000 |
